What was measured:
Assay type in all cases: biochemical
GST-tagged SIK1 = GST-tagged SIK1 (Homo sapiens (Human), UniProt P57059); assay: SIK1 inhibition test (ADP-Glo Max Assay); details: enzyme 20 nM, AMARA Peptide 200 μM, ATP 1 mM, 2 hours room temperature
Outline: (§1)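 ADP formed was detected by luciferase luminescence after a 2 h room-temperature reaction with 1 mM ATP, 5 mM MgCl2 and AMARA peptide at 200 μM (SIK1, SIK2) or 100 μM (SIK3). Final GST-enzyme levels were 20 nM SIK1, 3 nM SIK2 and 100 nM SIK3. IC50 came from 16-point concentration-response data.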

GST-tagged SIK2 = GST-tagged SIK2 (Homo sapiens (Human), UniProt Q9H0K1); assay: SIK2 inhibition test (ADP-Glo Max Assay); details: enzyme 3 nM, AMARA Peptide 200 μM, ATP 1 mM, 2 hours room temperature
Outline: as §1

GST-tagged SIK3 = GST-tagged SIK3 (Homo sapiens (Human), UniProt Q9Y2K2); assay: SIK3 inhibition test (ADP-Glo Max Assay); details: enzyme 100 nM, AMARA Peptide 100 μM, ATP 1 mM, 2 hours room temperature
Outline: as §1

GST-tagged SIK3, sequence (Q9Y2K2 whole entry): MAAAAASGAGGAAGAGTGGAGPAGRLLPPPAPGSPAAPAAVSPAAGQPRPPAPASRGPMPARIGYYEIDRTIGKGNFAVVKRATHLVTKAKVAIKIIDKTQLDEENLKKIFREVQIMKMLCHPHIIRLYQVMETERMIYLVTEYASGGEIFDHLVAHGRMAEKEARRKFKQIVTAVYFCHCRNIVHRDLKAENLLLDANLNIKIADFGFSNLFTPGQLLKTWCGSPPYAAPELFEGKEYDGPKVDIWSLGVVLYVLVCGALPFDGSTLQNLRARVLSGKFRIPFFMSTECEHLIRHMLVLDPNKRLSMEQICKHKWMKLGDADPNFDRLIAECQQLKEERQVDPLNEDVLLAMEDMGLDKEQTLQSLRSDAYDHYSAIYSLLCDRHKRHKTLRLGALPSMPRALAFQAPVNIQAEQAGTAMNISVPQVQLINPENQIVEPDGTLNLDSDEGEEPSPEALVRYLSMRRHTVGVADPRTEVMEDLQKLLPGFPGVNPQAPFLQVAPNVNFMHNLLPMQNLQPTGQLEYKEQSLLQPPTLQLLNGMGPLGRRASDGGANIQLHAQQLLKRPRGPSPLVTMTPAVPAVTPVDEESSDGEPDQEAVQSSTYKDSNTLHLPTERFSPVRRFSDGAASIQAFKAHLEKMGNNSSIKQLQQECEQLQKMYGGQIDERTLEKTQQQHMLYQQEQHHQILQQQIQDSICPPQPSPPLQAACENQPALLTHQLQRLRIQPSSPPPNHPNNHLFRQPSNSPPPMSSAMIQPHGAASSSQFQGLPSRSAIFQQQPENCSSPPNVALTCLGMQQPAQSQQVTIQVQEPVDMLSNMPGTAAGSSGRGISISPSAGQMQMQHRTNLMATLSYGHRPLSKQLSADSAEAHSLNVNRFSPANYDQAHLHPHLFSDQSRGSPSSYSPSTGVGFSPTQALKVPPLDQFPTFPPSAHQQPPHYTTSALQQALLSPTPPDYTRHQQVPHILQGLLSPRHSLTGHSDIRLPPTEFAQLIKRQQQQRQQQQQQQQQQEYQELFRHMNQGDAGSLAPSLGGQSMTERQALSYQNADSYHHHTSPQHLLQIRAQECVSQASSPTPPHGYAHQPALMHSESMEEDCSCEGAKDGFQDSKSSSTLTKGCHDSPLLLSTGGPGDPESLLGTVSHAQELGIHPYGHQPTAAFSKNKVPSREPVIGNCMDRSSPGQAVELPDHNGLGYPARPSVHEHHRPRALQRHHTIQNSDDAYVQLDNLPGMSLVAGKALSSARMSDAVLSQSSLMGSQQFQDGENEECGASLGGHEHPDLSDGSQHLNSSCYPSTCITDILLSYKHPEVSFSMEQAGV
GST-tagged SIK2, sequence (Q9H0K1 whole entry): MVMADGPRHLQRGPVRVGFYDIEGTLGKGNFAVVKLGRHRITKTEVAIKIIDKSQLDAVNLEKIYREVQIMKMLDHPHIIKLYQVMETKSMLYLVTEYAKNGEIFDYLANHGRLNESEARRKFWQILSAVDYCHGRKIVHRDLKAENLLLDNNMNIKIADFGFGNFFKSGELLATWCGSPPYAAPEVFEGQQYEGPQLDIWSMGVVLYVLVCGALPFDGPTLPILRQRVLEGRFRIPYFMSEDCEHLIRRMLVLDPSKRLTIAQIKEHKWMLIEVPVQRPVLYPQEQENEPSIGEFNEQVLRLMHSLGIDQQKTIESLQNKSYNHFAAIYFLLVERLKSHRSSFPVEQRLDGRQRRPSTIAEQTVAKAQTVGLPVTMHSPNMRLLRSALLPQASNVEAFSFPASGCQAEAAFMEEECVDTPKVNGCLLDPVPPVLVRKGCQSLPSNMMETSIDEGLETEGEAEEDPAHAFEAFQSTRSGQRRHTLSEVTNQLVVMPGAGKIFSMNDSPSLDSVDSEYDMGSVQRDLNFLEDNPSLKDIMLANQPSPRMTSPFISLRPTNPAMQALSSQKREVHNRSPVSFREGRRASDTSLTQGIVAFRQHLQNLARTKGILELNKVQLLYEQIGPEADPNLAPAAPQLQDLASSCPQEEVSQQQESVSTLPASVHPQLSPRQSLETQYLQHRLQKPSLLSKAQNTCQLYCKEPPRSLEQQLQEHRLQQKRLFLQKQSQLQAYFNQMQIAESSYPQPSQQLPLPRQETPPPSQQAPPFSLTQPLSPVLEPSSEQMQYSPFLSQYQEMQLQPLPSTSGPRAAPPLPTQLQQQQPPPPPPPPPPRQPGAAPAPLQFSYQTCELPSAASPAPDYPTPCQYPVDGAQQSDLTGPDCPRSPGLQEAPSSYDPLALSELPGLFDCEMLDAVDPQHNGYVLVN
GST-tagged SIK1, sequence (P57059 whole entry): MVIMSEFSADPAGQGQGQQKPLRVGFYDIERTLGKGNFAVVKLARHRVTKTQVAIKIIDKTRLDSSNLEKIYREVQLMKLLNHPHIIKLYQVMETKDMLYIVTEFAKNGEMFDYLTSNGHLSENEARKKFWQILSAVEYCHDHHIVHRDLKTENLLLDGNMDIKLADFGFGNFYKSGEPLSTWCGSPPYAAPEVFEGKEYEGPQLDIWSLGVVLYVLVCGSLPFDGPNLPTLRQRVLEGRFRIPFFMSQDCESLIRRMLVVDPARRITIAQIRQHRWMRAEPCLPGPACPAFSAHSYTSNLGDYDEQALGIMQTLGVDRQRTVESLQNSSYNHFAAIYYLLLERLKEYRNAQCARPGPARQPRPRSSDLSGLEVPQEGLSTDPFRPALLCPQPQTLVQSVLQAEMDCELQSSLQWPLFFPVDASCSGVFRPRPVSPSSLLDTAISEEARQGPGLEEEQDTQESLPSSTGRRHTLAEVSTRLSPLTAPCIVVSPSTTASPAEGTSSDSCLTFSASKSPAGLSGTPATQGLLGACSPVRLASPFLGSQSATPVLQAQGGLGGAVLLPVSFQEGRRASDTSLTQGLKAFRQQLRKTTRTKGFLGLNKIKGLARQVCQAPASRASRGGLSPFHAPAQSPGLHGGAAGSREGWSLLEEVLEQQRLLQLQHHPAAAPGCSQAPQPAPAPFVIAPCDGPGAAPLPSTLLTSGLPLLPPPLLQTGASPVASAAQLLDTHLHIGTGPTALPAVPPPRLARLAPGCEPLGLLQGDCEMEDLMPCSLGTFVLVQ

| Compound | IC50 (GST-tagged SIK1) | IC50 (GST-tagged SIK2) | IC50 (GST-tagged SIK3) |
| --- | --- | --- | --- |
| COc1cc(-c2c3c(C#N)cc(-c4cnn(C)c4)cc3nn2C)cc2c1C(=O)NCC2(C)C [Example 129, 3-(8-methoxy-4,4-dimethyl-1-oxo-2,3-dihydroisoquinolin-6-yl)-2-methyl-6-(1-methylpyrazol-4-yl)indazol-4-carbonitrile] | 5.1 nM | 0.9 nM | 6.6 nM |
| COc1cc(-c2c3c(OC(F)F)cc(-c4cnn(C)c4)cc3nn2C)cc(OC(F)F)c1C(N)=O [Example 131, 2-(difluoromethoxy)-4-[4-(difluoromethoxy)-2-methyl-6-(1-methylpyrazol-4-yl)indazol-3-yl]-6-methoxybenzamide] | 12.2 nM | 4.5 nM | 16.3 nM |
| COc1cc(-c2c3c(C#N)cc(-c4cnn(CC(C)C)c4)cc3nn2C)cc(OC(F)F)c1C(N)=O [Example 135, 4-[4-cyano-2-methyl-6-[1-(2-methylpropyl)pyrazol-4-yl]indazol-3-yl]-2-(difluoromethoxy)-6-methoxybenzamide] | 17.2 nM | 6.2 nM | 5.9 nM |
| COc1cc(-c2c3c(C#N)cc(-c4cnn(CCC5(O)CCC5)c4)cc3nn2C)cc(OC(F)F)c1C(N)=O [Example 137, 4-[4-cyano-6-[1-[2-(1-hydroxycyclobutyl)ethyl]pyrazol-4-yl]-2-methylindazol-3-yl]-2-(difluoromethoxy)-6-methoxybenzamide] | 11.6 nM | 5.8 nM | 4.7 nM |
| COc1cc(-c2c3c(C#N)cc(-c4cnn(CC5CC5)c4)cc3nn2C)cc(OC(F)F)c1C(N)=O [Example 138, 4-[4-cyano-6-[1-(cyclopropylmethyl)pyrazol-4-yl]-2-methylindazol-3-yl]-2-(difluoromethoxy)-6-methoxybenzamide] | 16.9 nM | 7.2 nM | 6.6 nM |
| CCn1cc(-c2cc(C#N)c3c(-c4cc(OC)c5c(c4)C(C)(C)CNC5=O)n(C)nc3c2)cn1 [Example 139, 6-(1-ethylpyrazol-4-yl)-3-(8-methoxy-4,4-dimethyl-1-oxo-2,3-dihydroisoquinolin-6-yl)-2-methylindazole-4-carbonitrile] | 9 nM | 8.6 nM | 12.8 nM |
| CCn1cc(-c2cc(C#N)c3c(-c4cc(OC)c(C(N)=O)c(OC(F)F)c4)n(C)nc3c2)cn1 [Example 141, 4-[4-cyano-6-(1-ethylpyrazol-4-yl)-2-methylindazol-3-yl]-2-(difluoromethoxy)-6-methoxybenzamide] | 17.6 nM | 2 nM | 2.7 nM |
| COc1cc(-c2c3c(C#N)cc(-c4cnn(CCC(C)(C)O)c4)cc3nn2C)cc(OC(F)F)c1C(N)=O [Example 142] | 16.2 nM | 1.9 nM | 2.7 nM |
| COCCn1cc(-c2cc(C#N)c3c(-c4cc(OC)c5c(c4)C(C)(C)CNC5=O)n(C)nc3c2)cn1 [Example 143, 3-(8-methoxy-4,4-dimethyl-1-oxo-2,3-dihydroisoquinolin-6-yl)-6-[1-(2-methoxyethyl)pyrazol-4-yl]-2-methylindazole-4-carbonitrile] | 10.5 nM | 2.2 nM | 8.6 nM |
| COc1cc(-c2c3c(C#N)cc(-c4cnn(C[C@H](C)O)c4)cc3nn2C)cc2c1C(=O)NCC2(C)C [Example 144, 6-[1-[(2S)-2-hydroxypropyl]pyrazol-4-yl]-3-(8-methoxy-4,4-dimethyl-1-oxo-2,3-dihydroisoquinolin-6-yl)-2-methylindazole-4-carbonitrile] | 10.1 nM | 3.7 nM | 7.8 nM |
| COc1cc(-c2c3c(C#N)cc(-c4cnn(CC(F)(F)F)c4)cc3nn2C)cc2c1C(=O)NCC2(C)C [Example 146, 3-(8-methoxy-4,4-dimethyl-1-oxo-2,3-dihydroisoquinolin-6-yl)-2-methyl-6-[1-(2,2,2-trifluoroethyl)pyrazol-4-yl]indazole-4-carbonitrile] | 12.6 nM | 3.6 nM | 7.8 nM |
| COc1cc(-c2c3c(C#N)cc(-c4cn[nH]c4)cc3nn2C)cc2c1C(=O)NCC2(C)C [Example 147, 3-(8-methoxy-4,4-dimethyl-1-oxo-2,3-dihydroisoquinolin-6-yl)-2-methyl-6-(1H-pyrazol-4-yl)indazol-4-carbonitrile] | 6.3 nM | 3.2 nM | 13.4 nM |
| COc1cc(-c2c3c(C#N)cc(-c4cc[nH]n4)cc3nn2C)cc(OC(F)F)c1C(=O)N[C@@H]1CC1(F)F [Example 149, 4-[4-cyano-2-methyl-6-(1H-pyrazol-3-yl)indazol-3-yl]-N-[(1R)-2,2-difluorocyclopropyl]-2-(difluoromethoxy)-6-methoxybenzamide] | 10.4 nM | 1.3 nM | 1.6 nM |
| CCOCCn1cc(-c2cc(C#N)c3c(-c4cc(OC)c5c(c4)C(C)(C)CNC5=O)n(C)nc3c2)cn1 [Example 152, 6-[1-(2-ethoxyethyl)pyrazol-4-yl]-3-(8-methoxy-4,4-dimethyl-1-oxo-2,3-dihydroisoquinolin-6-yl)-2-methylindazole-4-carbonitrile] | 7.2 nM | 3.4 nM | 14.4 nM |
| COc1cc(-c2c3c(C#N)cc(-c4cnn(C[C@@H](C)O)c4)cc3nn2C)cc(OC(F)F)c1C(=O)N[C@@H]1CC1(F)F [Example 153, 4-[4-cyano-6-[1-[(2R)-2-hydroxypropyl]pyrazol-4-yl]-2-methylindazol-3-yl]-N-[(1R)-2,2-difluorocyclopropyl]-2-(difluoromethoxy)-6-methoxybenzamide] | 8.5 nM | 1.8 nM | 2.7 nM |
| COCCn1cc(-c2cc(OC(F)F)c3c(-c4cc(OC)c(C(N)=O)c(OC(F)F)c4)n(C)nc3c2)cn1 [Example 154, 2-(difluoromethoxy)-4-[4-(difluoromethoxy)-6-[1-(2-methoxyethyl)pyrazol-4-yl]-2-methylindazol-3-yl]-6-methoxybenzamide] | 7.6 nM | 1.2 nM | 9.5 nM |

Continued, values first:

| IC50 (GST-tagged SIK1) | IC50 (GST-tagged SIK2) | IC50 (GST-tagged SIK3) | Compound |
| --- | --- | --- | --- |
| 16.9 nM | 2.1 nM | 16.8 nM | COc1cc(-c2c3c(OC)cc(-c4cnn(C)c4)cc3nn2C)cc(OC(F)F)c1C(N)=O [Example 130, 2-(difluoromethoxy)-6-methoxy-4-[4-methoxy-2-methyl-6-(1-methylpyrazol-4-yl)indazol-3-yl]benzamide] |
| 16.1 nM | 4 nM | 5.8 nM | COc1cc(-c2c3c(C#N)cc(-c4cnn(C(C)C)c4)cc3nn2C)cc(OC(F)F)c1C(N)=O [Example 132, 4-[4-cyano-2-methyl-6-(1-propan-2-ylpyrazol-4-yl)indazol-3-yl]-2-(difluoromethoxy)-6-methoxybenzamide] |
| 13.6 nM | 2.1 nM | 4.9 nM | COCCn1cc(-c2cc(C#N)c3c(-c4cc(OC)c(C(N)=O)c(OC(F)F)c4)n(C)nc3c2)cn1 [Example 133, 4-[4-cyano-6-[1-(2-methoxyethyl)pyrazol-4-yl]-2-methylindazol-3-yl]-2-(difluoromethoxy)-6-methoxybenzamide] |
| 13.6 nM | 3.3 nM | 5.7 nM | COCCn1cc(-c2cc(C(F)F)c3c(-c4cc(OC)c(C(N)=O)c(OC(F)F)c4)n(C)nc3c2)cn1 [Example 134, 2-(difluoromethoxy)-4-[4-(difluoromethyl)-6-[1-(2-methoxyethyl)pyrazol-4-yl]-2-methylindazol-3-yl]-6-methoxybenzamide] |
| 7.6 nM | 3.4 nM | 13.4 nM | CCOc1cc(-c2cnn(C)c2)cc2nn(C)c(-c3cc(OC)c(C(N)=O)c(OC(F)F)c3)c12 [Example 136, 2-(difluoromethoxy)-4-[4-ethoxy-2-methyl-6-(1-methylpyrazol-4-yl)indazol-3-yl]-6-methoxybenzamide] |
| 7.8 nM | 12.3 nM | 10.3 nM | CCCn1cc(-c2cc(C#N)c3c(-c4cc(OC)c5c(c4)C(C)(C)CNC5=O)n(C)nc3c2)cn1 [Example 140, 3-(8-methoxy-4,4-dimethyl-1-oxo-2,3-dihydroisoquinolin-6-yl)-2-methyl-6-(1-propylpyrazol-4-yl)indazol-4-carbonitrile] |
| 10.3 nM | 1.8 nM | 19.1 nM | COc1cc(-c2c3c(OCCO)cc(-c4cnn(C)c4)cc3nn2C)cc(OC(F)F)c1C(N)=O [Example 145, 2-(difluoromethoxy)-4-[4-(2-hydroxyethoxy)-2-methyl-6-(1-methylpyrazol-4-yl)indazol-3-yl]-6-methoxybenzamide] |
| 6 nM | 1.3 nM | 1.1 nM | COc1cc(-c2c3c(C#N)cc(-c4cn[nH]c4)cc3nn2C)cc(OC(F)F)c1C(=O)N[C@@H]1CC1(F)F [Example 148, 4-[4-cyano-2-methyl-6-(1H-pyrazol-4-yl)indazol-3-yl]-N-[(1R)-2,2-difluorocyclopropyl]-2-(difluoromethoxy)-6-methoxybenzamide] |
| 10.2 nM | 2.4 nM | 1.3 nM | COc1cc(-c2c3c(C(F)F)cc(-c4cn[nH]c4)cc3nn2C)cc(OC(F)F)c1C(=O)N[C@@H]1CC1(F)F [Example 150, N-[(1R)-2,2-difluorocyclopropyl]-2-(difluoromethoxy)-4-[4-(difluoromethyl)-2-methyl-6-(1H-pyrazol-4-yl)indazol-3-yl]-6-methoxybenzamide] |
| 9.8 nM | 3.5 nM | 14.2 nM | COCCCn1cc(-c2cc(C#N)c3c(-c4cc(OC)c5c(c4)C(C)(C)CNC5=O)n(C)nc3c2)cn1 [Example 151, 3-(8-methoxy-4,4-dimethyl-1-oxo-2,3-dihydroisoquinolin-6-yl)-6-[1-(3-methoxypropyl)pyrazol-4-yl]-2-methylindazole-4-carbonitrile] |

— patent US20260062387A1, “SALT-INDUCIBLE KINASE INHIBITOR COMPOUND AND PHARMACEUTICAL COMPOSITION INCLUDING THE SAME” (MITSUBISHI TANABE PHARMA CORPORATION, priority 2023, published 2026)
